# Assay results from paper PMC3632115 (Nucleic Acids Research, 2013).
# Target: T1, Pif1 (Saccharomyces cerevisiae, UniProt P07271)
# T1 sequence (P07271 46-859): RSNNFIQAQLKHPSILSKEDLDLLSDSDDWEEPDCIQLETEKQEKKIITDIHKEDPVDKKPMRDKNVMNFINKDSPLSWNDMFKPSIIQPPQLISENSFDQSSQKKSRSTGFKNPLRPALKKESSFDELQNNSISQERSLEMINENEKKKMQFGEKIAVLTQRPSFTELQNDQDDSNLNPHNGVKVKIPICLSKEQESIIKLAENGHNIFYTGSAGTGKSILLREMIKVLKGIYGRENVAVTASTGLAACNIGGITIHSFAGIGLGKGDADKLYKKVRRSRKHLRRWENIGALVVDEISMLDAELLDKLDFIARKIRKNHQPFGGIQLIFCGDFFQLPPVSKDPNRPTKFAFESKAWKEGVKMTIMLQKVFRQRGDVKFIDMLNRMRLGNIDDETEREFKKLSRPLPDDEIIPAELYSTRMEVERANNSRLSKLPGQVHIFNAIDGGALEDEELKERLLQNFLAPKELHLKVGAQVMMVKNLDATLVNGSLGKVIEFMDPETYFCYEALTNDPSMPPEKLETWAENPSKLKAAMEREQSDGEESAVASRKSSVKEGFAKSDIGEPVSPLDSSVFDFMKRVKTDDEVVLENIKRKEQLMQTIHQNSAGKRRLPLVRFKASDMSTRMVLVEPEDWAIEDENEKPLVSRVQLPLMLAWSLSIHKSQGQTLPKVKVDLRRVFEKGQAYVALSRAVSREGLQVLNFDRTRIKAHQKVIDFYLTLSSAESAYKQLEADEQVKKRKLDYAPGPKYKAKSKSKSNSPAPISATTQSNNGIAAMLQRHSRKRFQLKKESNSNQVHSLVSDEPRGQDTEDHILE
# Experiment: stopped-flow Cy3 fluorescence, dissociation of pre-formed Pif1-dT20-Cy3 complex
# Assay type: binding
# Details: Buffer T200 (200 mM NaCl, pH 8.3, 5 mM MgCl2), 22°C; 1 mM ADP, 0.1 mg/ml heparin
compound,measurement,value
Nc1ncnc2c1ncn2[C@@H]1O[C@H](COP(=O)(O)OP(=O)(O)O)[C@@H](O)[C@H]1O [ADP],apparent rate of dissociation,"This is true also for ADP, the product of ATP hydrolysis (Figure 1b, green)"
